Numbers after ± are expanded uncertainties.
Columns and labels:
[1] = Molar enthalpy of transition or fusion; conditions: Crystal; Adiabatic calorimetry
[2] = Crystal; Adiabatic calorimetry
[3] = molar heat capacity at constant pressure; conditions: 101.33 kPa, Small (less than 1 g) adiabatic calorimetry

c1ccc(Oc2ccccc2)cc1 [diphenyl ether]
Molar enthalpy of transition or fusion [1]: 4.092 ± 0.0287 kcal/mol | Triple point temperature [2]: 299.96 ± 0.05 K | molar heat capacity at constant pressure ([3]; 282.08 K, Crystal): 202.2 ± 1.4 J/K/mol | molar heat capacity at constant pressure ([3]; 283.34 K, Crystal): 202.92 ± 1.4 J/K/mol | molar heat capacity at constant pressure ([3]; 285.84 K, Crystal): 203.66 ± 1.4 J/K/mol | molar heat capacity at constant pressure ([3]; 287.09 K, Crystal): 205.43 ± 1.4 J/K/mol | molar heat capacity at constant pressure ([3]; 288.33 K, Crystal): 206.1 ± 1.4 J/K/mol | molar heat capacity at constant pressure ([3]; 289.59 K, Crystal): 207.25 ± 1.4 J/K/mol | molar heat capacity at constant pressure ([3]; 290.84 K, Crystal): 208.01 ± 1.4 J/K/mol | molar heat capacity at constant pressure ([3]; 292.1 K, Crystal): 209.17 ± 1.4 J/K/mol | molar heat capacity at constant pressure ([3]; 321.46 K, Liquid): 276.46 ± 1.9 J/K/mol | molar heat capacity at constant pressure ([3]; 323.17 K, Liquid): 278.21 ± 1.9 J/K/mol | molar heat capacity at constant pressure ([3]; 324.89 K, Liquid): 278.93 ± 1.9 J/K/mol | molar heat capacity at constant pressure ([3]; 326.63 K, Liquid): 279.41 ± 1.9 J/K/mol | molar heat capacity at constant pressure ([3]; 328.37 K, Liquid): 279.66 ± 1.9 J/K/mol | molar heat capacity at constant pressure ([3]; 330.1 K, Liquid): 280.76 ± 1.9 J/K/mol | molar heat capacity at constant pressure ([3]; 331.85 K, Liquid): 281.87 ± 1.9 J/K/mol | molar heat capacity at constant pressure ([3]; 333.61 K, Liquid): 282.69 ± 1.9 J/K/mol | molar heat capacity at constant pressure ([3]; 335.38 K, Liquid): 283.24 ± 1.9 J/K/mol

Source: the NIST ThermoML archive (doi:10.1016/j.jct.2018.04.009)
